ChEMBL document CHEMBL1148003 (Bioorg Med Chem, 2007)
One block for each compound: values may come before it.

Columns and labels:
[1] = Inhibition of Escherichia coli beta-D-galactosidase
[2] = Inhibition of almond beta-D-glucosidase; parameters: species or system Prunus dulcis
[3] = Inhibition of jack bean alpha-D-mannosidase; parameters: species or system Canavalia ensiformis
[4] = Inhibition of bovine kidney alpha-L-fucosidase; parameters: species or system Bos taurus
[5] = Inhibition of green coffee bean alpha-D-galactosidase
[6] = biological target: T1, Glucoamylase, intracellular sporulation-specific (Saccharomyces cerevisiae S288c) (UniProt P08019); assay: Inhibition of yeast alpha-D-glucosidase at 1 mM
T1 sequence (whole entry): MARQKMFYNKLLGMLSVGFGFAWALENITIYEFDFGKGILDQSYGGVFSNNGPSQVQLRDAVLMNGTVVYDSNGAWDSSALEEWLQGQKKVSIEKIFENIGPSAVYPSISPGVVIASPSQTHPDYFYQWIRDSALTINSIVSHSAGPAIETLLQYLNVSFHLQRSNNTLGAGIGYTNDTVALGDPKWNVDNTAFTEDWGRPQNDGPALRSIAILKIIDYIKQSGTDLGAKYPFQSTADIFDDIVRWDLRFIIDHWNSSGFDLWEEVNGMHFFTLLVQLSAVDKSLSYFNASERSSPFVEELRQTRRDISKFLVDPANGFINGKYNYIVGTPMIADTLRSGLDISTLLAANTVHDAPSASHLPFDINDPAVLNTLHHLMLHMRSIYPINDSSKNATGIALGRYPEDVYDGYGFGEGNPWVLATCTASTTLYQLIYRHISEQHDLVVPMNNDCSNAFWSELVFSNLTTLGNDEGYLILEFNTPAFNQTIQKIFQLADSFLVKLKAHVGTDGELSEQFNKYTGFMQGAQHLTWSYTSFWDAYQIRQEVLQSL

[7] = Inhibition of green coffee bean alpha-D-galactosidase at 1 mM
[8] = tested on: Escherichia coli; assay: Inhibition of Escherichia coli beta-D-galactosidase at 1 mM
[9] = tested on: Cornu aspersum; assay: Inhibition of snail beta-D-mannosidase at 1 mM
[10] = species on record: Bos taurus; assay: Inhibition of bovine kidney alpha-L-fucosidase at 1 mM
[11] = Inhibition of Aspergillus wentii beta-D-mannosidase
[12] = Inhibition of snail beta-D-mannosidase; parameters: species or system Cornu aspersum

- IC50 [2]: 500 µM
- IC50 [3]: 200 µM
Compound: OC[C@H]1NC[C@@H](O)[C@@H]1O

- IC50 [1]: 1000 µM
- Ki [3]: 20 µM
- Ki [4]: 3 µM
Compound: O[C@@H]1CN=C[C@@H]1O

- Ki [11]: 42 µM
- IC50 [2]: 2.2 µM
- IC50 [3]: 3 µM
Compound: OC[C@H]1N=C[C@@H](O)[C@@H]1O [NECTRISINE]

Second part, the compound before the results:

Compound: O[C@@H]1C=NC[C@@H]1O
- Ki [1]: 0.2 µM
- Ki [2]: 0.3 µM
- Ki [3]: 2 µM
- IC50 [4]: 1000 µM
- Ki [5]: 0.2 µM

Compound: O[C@@H]1CNC[C@H]1O
- inhibition [6]: 43%
- inhibition [7]: 27%
- inhibition [8]: 20%

Compound: O=S(=O)(O)C1NC[C@H](O)[C@H]1O (stereo not given in full)
- inhibition [9]: 28%
- IC50 [2]: 2000 µM
- inhibition [7]: 20%
- inhibition [10]: 23%

Compound: O=S(=O)(O)C1NC[C@@H](O)[C@@H]1O (stereo not given in full)
- IC50 [2]: 180 µM
- Ki [3]: 5 µM

Compound: O[C@H]1[C@H](O)CN[C@H]1O
- inhibition [9]: 50%
- IC50 [2]: 200 µM
- Ki [3]: 5 µM
- IC50 [12]: 1000 µM
- inhibition [7]: 40%

Compound: OC[C@H]1NC(O)[C@H](O)[C@@H](O)[C@@H]1O (stereo not given in full) [NOJIRIMYCIN]
- Ki [11]: 900 µM
- Ki [2]: 0.9 µM
- Ki [3]: 500 µM
